The values below come from patent US20240368135A1 (VERTEX PHARMACEUTICALS INCORPORATED, priority 2021, published 2024).

As a reminder, the IC50 is the concentration that gives 50% inhibition.

The target in the first test is human NaV 1.8 (Homo sapiens, UniProt Q9Y5Y9). Briefly: E-VIPR assay detecting and measuring NaV inhibition properties. The test is classed as cell-based. The following applies: HEK cells expressing truncated human NaV 1.8; in the presence of human serum (compound numbers followed by *); read-out: IC50 in the E-VIPR Assay, performed in the presence of human serum. Summed up: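 Membrane potential was followed by coumarin/oxonol FRET during electrical field stimulation of matrigel-seeded HEK cells carrying truncated human NaV1.8 plus KIR2.1. Dosing used 11 points, 3-fold steps, top 300 nM final, 0.625% DMSO, with or without 25% human serum.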
Sequence of human NaV 1.8 (Q9Y5Y9 126-399 limits assumed): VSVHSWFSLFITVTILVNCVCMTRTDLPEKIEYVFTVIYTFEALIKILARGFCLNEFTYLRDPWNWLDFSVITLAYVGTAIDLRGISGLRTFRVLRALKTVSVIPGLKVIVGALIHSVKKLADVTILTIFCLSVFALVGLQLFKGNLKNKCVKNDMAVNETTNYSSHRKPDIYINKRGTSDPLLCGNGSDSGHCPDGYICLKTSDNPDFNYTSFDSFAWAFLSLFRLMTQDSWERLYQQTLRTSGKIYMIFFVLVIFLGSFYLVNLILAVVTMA
Sequence of human NaV 1.8 (Q9Y5Y9 660-890 limits assumed): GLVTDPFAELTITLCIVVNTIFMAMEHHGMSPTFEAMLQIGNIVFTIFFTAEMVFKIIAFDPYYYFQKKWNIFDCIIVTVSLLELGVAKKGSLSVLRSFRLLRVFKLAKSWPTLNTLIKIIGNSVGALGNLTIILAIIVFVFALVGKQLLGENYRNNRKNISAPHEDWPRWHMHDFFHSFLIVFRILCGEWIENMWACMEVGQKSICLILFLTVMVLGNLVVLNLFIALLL
Sequence of human NaV 1.8 (Q9Y5Y9 1148-1722 limits assumed): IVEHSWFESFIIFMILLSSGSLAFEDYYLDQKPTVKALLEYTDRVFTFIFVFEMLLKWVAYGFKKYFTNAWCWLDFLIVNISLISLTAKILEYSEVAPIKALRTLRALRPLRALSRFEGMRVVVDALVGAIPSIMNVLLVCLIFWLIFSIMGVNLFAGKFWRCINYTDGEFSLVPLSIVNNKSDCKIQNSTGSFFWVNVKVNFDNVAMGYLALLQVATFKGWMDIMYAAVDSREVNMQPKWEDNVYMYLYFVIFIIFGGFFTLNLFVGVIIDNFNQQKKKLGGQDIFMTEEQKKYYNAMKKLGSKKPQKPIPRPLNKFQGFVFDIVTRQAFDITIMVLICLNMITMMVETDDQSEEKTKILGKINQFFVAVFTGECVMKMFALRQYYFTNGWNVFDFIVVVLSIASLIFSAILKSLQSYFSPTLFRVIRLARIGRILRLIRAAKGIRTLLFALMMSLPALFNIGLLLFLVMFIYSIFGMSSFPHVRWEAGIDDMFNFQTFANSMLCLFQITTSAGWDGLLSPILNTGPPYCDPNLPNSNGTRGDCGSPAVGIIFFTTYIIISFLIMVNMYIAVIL
As for `C[C@@H]1[C@H](c2ccc(F)c(F)c2OC(F)F)[C@@H](C(=O)Nc2ccnc(S(C)(=O)=O)c2)O[C@]1(C)C(F)(F)F` (single isomer, unassigned) [Compound 86], the IC50 was not below 1000 nM.
On the same count and under the same terms, with `CNCc1cc(NC(=O)[C@@H]2O[C@@](C)(C(F)(F)F)[C@@H](C)[C@H]2c2ccc(F)c(F)c2OC)c(F)cn1` (single isomer, unassigned) [Compound 13, 3-(3,4-difluoro-2-methoxy-phenyl)-N-[5-fluoro-2-(methylaminomethyl)-4-pyridyl]-4,5-dimethyl-5-(trifluoromethyl)tetrahydrofuran-2-carboxamide] the figure was 10 to 100 nM; with `CCc1c(F)ccc([C@@H]2C[C@](C)(C(F)(F)F)O[C@H]2C(=O)Nc2cn(S(C)(=O)=O)nc2C)c1OC` (stereo in doubt) [Compound 717, rel-(2R,3S,5R)-3-(3-ethyl-4-fluoro-2-methoxyphenyl)-5-methyl-N-(3-methyl-1-(methylsulfonyl)-1H-pyrazol-4-yl)-5-(trifluoromethyl)tetrahydrofuran-2-carboxamide], 100 to 1000 nM.

The same test, now with this note: HEK cells expressing truncated human NaV 1.8; no human serum; read-out: IC50 in the E-VIPR Assay.
Regarding `COc1c([C@H]2[C@H](C(=O)Nc3cn(C(F)F)nc3C)O[C@@](C)(C(F)(F)F)[C@H]2C)ccc(F)c1F` [Compound 311, (2R,3S,4S,5R)-3-(3,4-difluoro-2-methoxyphenyl)-N-(1-(difluoromethyl)-3-methyl-1H-pyrazol-4-yl)-4,5-dimethyl-5-(trifluoromethyl)tetrahydrofuran-2-carboxamide], the half-inhibitory concentration (IC50) was less than 10 nM.
For `C[C@H]1[C@@H](c2ccc(F)c(F)c2OC(F)F)[C@H](C(=O)Nc2ccn(C)c(=O)c2)O[C@@]1(C)C(F)(F)F` (single isomer, unassigned) [Compound 78], the IC50 was less than 10 nM.
As for `COc1c([C@H]2[C@H](C(=O)N[C@@H]3C[C@H]3c3cnn(C)c3)O[C@@](C)(C(F)(F)F)[C@H]2C)ccc(F)c1F` (relative stereo) [Compound 266, rel-(2R*,3S*,4S*,5R*)-3-(3,4-difluoro-2-methoxyphenyl)-4,5-dimethyl-N-((1R,2S)-2-(1-methyl-1H-pyrazol-4-yl)cyclopropyl)-5-(trifluoromethyl)tetrahydrofuran-2-carboxamide], the IC50 was not below 1000 nM.
Still for that read-out and setting: the value for `C[C@H]1[C@@H](c2ccc(F)c(F)c2OCCO)[C@H](C(=O)Nc2ccc3nncn3c2)O[C@@]1(C)C(F)(F)F` [Compound 548] was 10 to 100 nM; that for `COc1ncc(NC(=O)[C@@H]2O[C@@](C)(C(F)(F)F)[C@@H](C)[C@H]2c2ccc(F)c(F)c2OCCO)cn1` [Compound 550, (2R,3S,4S,5R)-3-(3,4-difluoro-2-(2-hydroxyethoxy)phenyl)-N-(2-methoxypyrimidin-5-yl)-4,5-dimethyl-5-(trifluoromethyl)tetrahydrofuran-2-carboxamide] was 100 to 1000 nM.
On the same count and under the same terms, the value for `COc1c([C@H]2[C@H](C(=O)NCC#N)O[C@@](C)(C(F)(F)F)[C@H]2C)ccc(F)c1F` [Compound 277, (2R,3S,4S,5R)-N-(cyanomethyl)-3-(3,4-difluoro-2-methoxyphenyl)-4,5-dimethyl-5-(trifluoromethyl)tetrahydrofuran-2-carboxamide] was not below 1000 nM; that for `COc1c([C@H]2[C@H](C(=O)Nc3cncc(CO)c3)O[C@@](C)(C(F)(F)F)[C@H]2C)ccc(F)c1F` [Compound 383, (2R,3S,4S,5R)-3-(3,4-difluoro-2-methoxyphenyl)-N-(5-(hydroxymethyl)pyridin-3-yl)-4,5-dimethyl-5-(trifluoromethyl)tetrahydrofuran-2-carboxamide] was 10 to 100 nM; that for `Cc1nocc1NC(=O)[C@@H]1O[C@@](C)(C(F)(F)F)[C@@H](C)[C@H]1c1ccc(F)c(F)c1OCCN1CC(C)(F)C1` [Compound 630, (2R,3S,4S,5R)-3-(3,4-difluoro-2-(2-(3-fluoro-3-methylazetidin-1-yl)ethoxy)phenyl)-4,5-dimethyl-N-(3-methylisoxazol-4-yl)-5-(trifluoromethyl)tetrahydrofuran-2-carboxamide] was 10 to 100 nM.
As for `COCC(O)c1cc(NC(=O)[C@@H]2O[C@@](C)(C(F)(F)F)[C@@H](C)[C@H]2c2ccc(F)c(F)c2OCCN2CC3CC(C2)O3)ccn1` (single isomer, unassigned) [Compound 610, rel-(2R*,3S*,4S*,5R*)-3-(2-(2-(6-oxa-3-azabicyclo[3.1.1]heptan-3-yl)ethoxy)-3,4-difluorophenyl)-N-(2-(1-hydroxy-2-methoxyethyl)pyridin-4-yl)-4,5-dimethyl-5-(trifluoromethyl)tetrahydrofuran-2-carboxamide], the IC50 fell in the range of 10 to 100 nM.
In the case of `Cc1c(F)ccc(C2C(C(=O)Nc3ccnc(S(C)(=O)=O)c3)OC(C)(C(F)(F)F)C2C)c1OC(F)F` (centres unmarked) [Compound 97, 3-[2-(difluoromethoxy)-4-fluoro-3-methyl-phenyl]-4,5-dimethyl-N-(2-methylsulfonyl-4-pyridyl)-5-(trifluoromethyl)tetrahydrofuran-2-carboxamide], the IC50 was less than 10 nM.
On the same count and under the same terms, with `CNC1CC(=O)N(c2cc(NC(=O)[C@@H]3O[C@@](C)(C(F)(F)F)[C@@H](C)[C@H]3c3ccc(F)c(F)c3OC)ccn2)C1` (single isomer, unassigned) [Compound 499, rel-(2R*,3S*,4S*,5R*)-3-(3,4-difluoro-2-methoxyphenyl)-4,5-dimethyl-N-(2-(4-(methylamino)-2-oxopyrrolidin-1-yl)pyridin-4-yl)-5-(trifluoromethyl)tetrahydrofuran-2-carboxamide] the figure was 10 to 100 nM; with `Cc1c(F)ccc(C2C(C(=O)Nc3ccn(C)c(=O)c3)OC(C)(C(F)(F)F)C2C)c1OC(F)F` (centres unmarked) [Compound 98, 3-[2-(difluoromethoxy)-4-fluoro-3-methyl-phenyl]-4,5-dimethyl-N-(1-methyl-2-oxo-4-pyridyl)-5-(trifluoromethyl)tetrahydrofuran-2-carboxamide], less than 10 nM.
Still for that read-out and setting: with `COc1c([C@@H]2[C@@H](C(=O)Nc3ccc(C(F)F)nc3)O[C@](C)(C(F)(F)F)[C@@H]2C)ccc(F)c1C(F)F` (single isomer, unassigned) [Compound 164] the figure was not below 1000 nM; with `Cc1oncc1NC(=O)C1OC(C)(C(F)(F)F)C(C)C1c1ccc(F)c(F)c1OC1CC(O)C1` [Compound 656, (2R,3S,4S,5R)-3-(3,4-difluoro-2-((1S,3R)-3-hydroxycyclobutoxy)phenyl)-4,5-dimethyl-N-(5-methylisoxazol-4-yl)-5-(trifluoromethyl)tetrahydrofuran-2-carboxamide], 10 to 100 nM.
Regarding `COc1c([C@H]2[C@H](C(=O)Nc3ccnc(C4(N)COC4)c3)O[C@@](C)(C(F)(F)F)[C@H]2C)ccc(F)c1F` [Compound 340, (2R,3S,4S,5R)-N-(2-(3-aminooxetan-3-yl)pyridin-4-yl)-3-(3,4-difluoro-2-methoxyphenyl)-4,5-dimethyl-5-(trifluoromethyl)-tetrahydrofuran-2-carboxamide], the IC50 is less than 10 nM.
On the same count and under the same terms, with `C[C@H]1[C@@H](c2ccc(F)c(F)c2OCCO)[C@H](C(=O)Nc2cncs2)O[C@@]1(C)C(F)(F)F` [Compound 555, (2R,3S,4S,5R)-3-(3,4-difluoro-2-(2-hydroxyethoxy)phenyl)-4,5-dimethyl-N-(thiazol-5-yl)-5-(trifluoromethyl)tetrahydrofuran-2-carboxamide] the figure was 10 to 100 nM.
The same measure, in the same setting: the value for `COc1c(C2C(C(=O)Nc3ccncn3)OC(C)(C(F)(F)F)C2C)ccc(F)c1F` (single isomer, unassigned) [Compound 36, 3-(3,4-difluoro-2-methoxy-phenyl)-4,5-dimethyl-N-pyrimidin-4-yl-5-(trifluoromethyl)tetrahydrofuran-2-carboxamide] was less than 10 nM; that for `Cc1nocc1NC(=O)[C@@H]1O[C@@](C)(C(F)(F)F)[C@@H](C)[C@H]1c1ccc(F)c(F)c1OC[C@@H](C)N1CC2(COC2)C1` [Compound 624, (2R,3S,4S,5R)-3-[3,4-difluoro-2-[(2R)-2-(2-oxa-6-azaspiro[3.3]heptan-6-yl)propoxy]phenyl]-4,5-dimethyl-N-(3-methylisoxazol-4-yl)-5-(trifluoromethyl)tetrahydrofuran-2-carboxamide] was 100 to 1000 nM.
Take `COc1c([C@H]2[C@H](C(=O)Nc3ccnc(N4CCCNCC4=O)c3)O[C@@](C)(C(F)(F)F)[C@H]2C)ccc(F)c1F` [Compound 481, (2R,3S,4S,5R)-3-(3,4-difluoro-2-methoxyphenyl)-4,5-dimethyl-N-(2-(2-oxo-1,4-diazepan-1-yl)pyridin-4-yl)-5-(trifluoromethyl)tetrahydrofuran-2-carboxamide]: the IC50 lay within 10 to 100 nM.
Still for that read-out and setting: with `COc1c(C2C(C(=O)Nc3ccn4nnnc4c3)OC(C)(C(F)(F)F)C2C)ccc(F)c1C` (racemic) [Compound 132, 3-(4-fluoro-2-methoxy-3-methyl-phenyl)-4,5-dimethyl-N-(tetrazolo[1,5-a]pyridin-7-yl)-5-(trifluoromethyl)tetrahydrofuran-2-carboxamide] the figure was less than 10 nM.
The same measure, in the same setting: with `CNCC(=O)Nc1cc(NC(=O)[C@@H]2O[C@@](C)(C(F)(F)F)[C@@H](C)[C@H]2c2ccc(F)c(F)c2OC)ccn1` [Compound 488] the figure was 10 to 100 nM; with `Cc1nn(C(F)F)cc1NC(=O)[C@@H]1O[C@@](C)(C(F)(F)F)[C@@H](C)[C@H]1c1ccc(F)c(F)c1OC1CC(O)C1` (stereo partly drawn) [Compound 600, (2R,3S,4S,5R)-3-[3,4-difluoro-2-(3-hydroxycyclobutoxy)phenyl]-N-[1-(difluoromethyl)-3-methyl-pyrazol-4-yl]-4,5-dimethyl-5-(trifluoromethyl)tetrahydrofuran-2-carboxamide], 10 to 100 nM; with `CCS(=O)(=O)c1cc(NC(=O)C2OC(C)(C(F)(F)F)C(C)C2c2ccc(F)c(F)c2OC)ccn1` (single isomer, unassigned) [Compound 51, 3-(3,4-difluoro-2-methoxy-phenyl)-N-(2-ethylsulfonyl-4-pyridyl)-4,5-dimethyl-5-(trifluoromethyl)tetrahydrofuran-2-carboxamide], less than 10 nM.
